# Data reported in patent US20240092835A1, “NOVEL PEPTIDES CAPABLE OF ALTERING NK CELL ACTIVITY” (Massachusetts Institute of Technology, priority 2022, published 2024).
# Where no end group is shown, it is not given here.
# What was measured:
# NKG2A+/NKG2C− NK cells = assay: NK cell activation markers in NKG2A+/NKG2C- NK cells incubated with peptide and K562 expressing HLA-E (inhibition); type: cell-based, human; settings: for percentage of CCL3+ NK cells / percentage of CD107a+ NK cells / percentage of IFNG+ NK cells / percentage of TNF+ NK cells: NKG2A+/NKG2C- NK cells, K562/HLA-E
# Procedure, shortened: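 Percent of NK cells positive for cell-surface markers was measured after exposure to K562 targets expressing HLA-E and loaded with human- or HCMV-proteome-derived peptides. A decrease means inhibition, an increase activation; NKG2A−/NKG2C− cells served as controls.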
# CD94/NKG2A = CD94/NKG2A (Homo sapiens, UniProt P26715+Q13241); assay: Steady-state surface plasmon resonance of peptide-HLA-E complex with CD94/NKG2A; type: binding; settings: for Binding of peptide-HLA-E complexes to CD94/NKG2A normalized to a theoretical Rmax: steady-state SPR
# Sequence of CD94/NKG2A (P26715 94-233 limits assumed): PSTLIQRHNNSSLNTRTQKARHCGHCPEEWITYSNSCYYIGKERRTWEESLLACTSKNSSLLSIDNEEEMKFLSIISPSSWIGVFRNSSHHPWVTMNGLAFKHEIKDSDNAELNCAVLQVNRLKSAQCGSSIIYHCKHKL
# Sequence of CD94/NKG2A (Q13241 32-179 limits assumed): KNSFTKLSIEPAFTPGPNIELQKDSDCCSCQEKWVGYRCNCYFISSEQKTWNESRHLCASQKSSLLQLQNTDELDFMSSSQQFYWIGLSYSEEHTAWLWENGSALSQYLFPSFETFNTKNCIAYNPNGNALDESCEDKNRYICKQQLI
# Method: Binding affinity of novel peptides linked to HLA-E was determined using surface plasmon resonance (SPR), a methodology used to study protein-protein interactions (Tables 15-19). The peptide-HLA-E complex (generated as a single chain trimer) was immobilized on the sensor chip surface and CD94/NKG2A or CD94/NKG2C were flowed over. Steady-state surface plasmon resonance experiments were performed with a Biacore T200 instrument. CD94/NKG2x in HBS-EP+ buffer was injected as analyte in a concentration range of 0.1 μM to 102.4 μM and flow rate of 10 μL/min at 25° C. Data was fit with Prism 9.4 (GraphPad Software Inc; San Diego CA) to a “one site, specific binding” model. Series S CM5 chips were coupled to neutravidin and utilized. Biotinylated pMHC was immobilized at approximately 400 RU. KD values calculated by Biacore software are reported. Rmax, fit values were calculated by Biacore software. Rmax, theoretical values were calculated using the analyte/ligand mass ratio (0.66) multiplied by the amount of ligand coupled to the chip.
sequence,measurement,setting,value
"TLPKRGLFL [human2, TLPKRGLFL]",effect on NKG2A+/NKG2C− NK cell inhibition (in words),"NKG2A+/NKG2C− NK cells; K562 expressing HLA-E, CD107a, IFNG, TNF, CCL3",mild inhibitory effects
same,percentage of CCL3+ NK cells,NKG2A+/NKG2C− NK cells; Trial 1,17.5%
same,percentage of CD107a+ NK cells,NKG2A+/NKG2C− NK cells; Trial 1,10.8%
same,percentage of IFNG+ NK cells,NKG2A+/NKG2C− NK cells; Trial 1,2.35%
same,percentage of TNF+ NK cells,NKG2A+/NKG2C− NK cells; Trial 1,0.83%
same,percentage of CCL3+ NK cells,NKG2A+/NKG2C− NK cells; Trial 2,34.9%
same,percentage of CD107a+ NK cells,NKG2A+/NKG2C− NK cells; Trial 2,13%
same,percentage of IFNG+ NK cells,NKG2A+/NKG2C− NK cells; Trial 2,2.85%
same,percentage of TNF+ NK cells,NKG2A+/NKG2C− NK cells; Trial 2,1.25%
same,percentage of CCL3+ NK cells,NKG2A+/NKG2C− NK cells; Trial 3,17.3%
same,percentage of CD107a+ NK cells,NKG2A+/NKG2C− NK cells; Trial 3,16.7%
same,percentage of IFNG+ NK cells,NKG2A+/NKG2C− NK cells; Trial 3,7.56%
same,percentage of TNF+ NK cells,NKG2A+/NKG2C− NK cells; Trial 3,3.94%
same,percentage of CCL3+ NK cells,NKG2A+/NKG2C− NK cells; Trial 4,13.3%
same,percentage of CD107a+ NK cells,NKG2A+/NKG2C− NK cells; Trial 4,15.1%
same,percentage of IFNG+ NK cells,NKG2A+/NKG2C− NK cells; Trial 4,2.41%
same,percentage of TNF+ NK cells,NKG2A+/NKG2C− NK cells; Trial 4,1.74%
same,percentage of CCL3+ NK cells,NKG2A+/NKG2C− NK cells; Trial 5,29.3%
same,percentage of CD107a+ NK cells,NKG2A+/NKG2C− NK cells; Trial 5,14.4%
same,percentage of IFNG+ NK cells,NKG2A+/NKG2C− NK cells; Trial 5,5.78%
same,percentage of TNF+ NK cells,NKG2A+/NKG2C− NK cells; Trial 5,2.47%
same,percentage of CCL3+ NK cells,NKG2A+/NKG2C− NK cells; Trial 6,16.2%
same,percentage of CD107a+ NK cells,NKG2A+/NKG2C− NK cells; Trial 6,14%
same,percentage of IFNG+ NK cells,NKG2A+/NKG2C− NK cells; Trial 6,3.48%
same,percentage of TNF+ NK cells,NKG2A+/NKG2C− NK cells; Trial 6,2.18%
same,binding of peptide-HLA-E complex to CD94/NKG2A normalized to a fitted Rmax,CD94/NKG2A; CD94/NKG2A concentration 0 μM,−0.007
same,binding of peptide-HLA-E complex to CD94/NKG2A normalized to a fitted Rmax,CD94/NKG2A; CD94/NKG2A concentration 0.1 μM,0.023
same,binding of peptide-HLA-E complex to CD94/NKG2A normalized to a fitted Rmax,CD94/NKG2A; CD94/NKG2A concentration 0.2 μM,0.046
same,binding of peptide-HLA-E complex to CD94/NKG2A normalized to a fitted Rmax,CD94/NKG2A; CD94/NKG2A concentration 0.4 μM,0.094
same,binding of peptide-HLA-E complex to CD94/NKG2A normalized to a fitted Rmax,CD94/NKG2A; CD94/NKG2A concentration 0.8 μM,0.173
same,binding of peptide-HLA-E complex to CD94/NKG2A normalized to a fitted Rmax,CD94/NKG2A; CD94/NKG2A concentration 1.6 μM,0.293
same,binding of peptide-HLA-E complex to CD94/NKG2A normalized to a fitted Rmax,CD94/NKG2A; CD94/NKG2A concentration 3.2 μM,0.450
same,binding of peptide-HLA-E complex to CD94/NKG2A normalized to a fitted Rmax,CD94/NKG2A; CD94/NKG2A concentration 6.4 μM,0.618
same,binding of peptide-HLA-E complex to CD94/NKG2A normalized to a fitted Rmax,CD94/NKG2A; CD94/NKG2A concentration 12.8 μM,0.766
same,binding of peptide-HLA-E complex to CD94/NKG2A normalized to a fitted Rmax,CD94/NKG2A; CD94/NKG2A concentration 25.6 μM,0.873
same,binding of peptide-HLA-E complex to CD94/NKG2A normalized to a fitted Rmax,CD94/NKG2A; CD94/NKG2A concentration 51.2 μM,0.942
same,binding of peptide-HLA-E complex to CD94/NKG2A normalized to a fitted Rmax,CD94/NKG2A; CD94/NKG2A concentration 102.4 μM,0.954
same,Binding of peptide-HLA-E complexes to CD94/NKG2A normalized to a theoretical Rmax,CD94/NKG2A; CD94/NKG2A analyte concentration 0.000 μM,−0.005
same,Binding of peptide-HLA-E complexes to CD94/NKG2A normalized to a theoretical Rmax,CD94/NKG2A; CD94/NKG2A analyte concentration 0.100 μM,0.017
same,Binding of peptide-HLA-E complexes to CD94/NKG2A normalized to a theoretical Rmax,CD94/NKG2A; CD94/NKG2A analyte concentration 0.200 μM,0.034
same,Binding of peptide-HLA-E complexes to CD94/NKG2A normalized to a theoretical Rmax,CD94/NKG2A; CD94/NKG2A analyte concentration 0.400 μM,0.070
same,Binding of peptide-HLA-E complexes to CD94/NKG2A normalized to a theoretical Rmax,CD94/NKG2A; CD94/NKG2A analyte concentration 0.800 μM,0.131
same,Binding of peptide-HLA-E complexes to CD94/NKG2A normalized to a theoretical Rmax,CD94/NKG2A; CD94/NKG2A analyte concentration 1.600 μM,0.221
same,Binding of peptide-HLA-E complexes to CD94/NKG2A normalized to a theoretical Rmax,CD94/NKG2A; CD94/NKG2A analyte concentration 3.200 μM,0.339
same,Binding of peptide-HLA-E complexes to CD94/NKG2A normalized to a theoretical Rmax,CD94/NKG2A; CD94/NKG2A analyte concentration 6.400 μM,0.465
same,Binding of peptide-HLA-E complexes to CD94/NKG2A normalized to a theoretical Rmax,CD94/NKG2A; CD94/NKG2A analyte concentration 12.800 μM,0.577
same,Binding of peptide-HLA-E complexes to CD94/NKG2A normalized to a theoretical Rmax,CD94/NKG2A; CD94/NKG2A analyte concentration 25.600 μM,0.657
same,Binding of peptide-HLA-E complexes to CD94/NKG2A normalized to a theoretical Rmax,CD94/NKG2A; CD94/NKG2A analyte concentration 51.200 μM,0.709
same,Binding of peptide-HLA-E complexes to CD94/NKG2A normalized to a theoretical Rmax,CD94/NKG2A; CD94/NKG2A analyte concentration 102.400 μM,0.718
